Assay results: patent publication US6903135B2, “Methods and products related to 16-HETE analogs” (Board of Regents, The University of Texas System, priority 1998, dated 2005)
Marks after values point to notes of the source that are not given here.

Key:
Type in all cases: cell-based
[1] = tested on: thrombin-stimulated human neutrophils; test: Thrombin-stimulated neutrophil adhesion to gelatin matrix
Protocol: (§1) Venous blood (60-70 ml) was collected from four healthy, normal volunteers into syringes containing heparin (1 U/ml). Polymorphonuclear leukocytes (PMNs) were isolated by a histopaque density gradient technique as previously described in Liu et al., Adhesion, Its role in Inflammatory Disease, Freeman and Co., New York, 1992, pp 189-192. Briefly, blood aliquots (6 ml) were layered over two layers (3 ml) of histopaque 1077 and 1119 in a conical centrifuge tube. The sample was then subjected to centrifugation at 100×g for 30 minutes at room temperature and the top layer, containing the neutrophils, was carefully collected. Hypotonic lysis was used to separate out the red blood cells. The neutrophils were then isolated from the sample by centrifugation (2000×g) and suspended in Hanks balanced salt solution (HBSS) containing 1 mM Ca^+ and 0.8 mM Mg^+ for studies involving arachidonic acid metabolism, and in M199 (with 1% BSA) for neutrophil adhesion assays. Total cells were counted using a hemocytometer and leukocytes were counted after staining with Wright-Giemsa stain. For each experiment, the cell preparations used contain ≧97% neutrophils, having ≧95% viability as determined by a trypan blue exclusion assay.
Isolated neutrophils were resuspended in M199 containing 1% BSA with a final concentration of 3×10^6 cells per ml. Cells suspensions (1 ml) were incubated with or without a test compound, 16(S)-HETE, 16(R)-HETE, or 20-HETE (concentrations 0.01 to 10 μM) for 10 min and then placed into gelatin-coated wells and further incubated for 20 min at 37° C. The wells were washed three times with 0.5 ml of solution M199 to remove non-adherent cells. The adherent cells were then removed by addition of 0.4 ml of 0.25% trypsin-EDTA in 0.1 M PBS to the gelatin-coated wells and incubation for 10 min at 37° C. The incubates were transferred and the wells were washed with 0.1 ml of M199 solution. The amount of cells in combined solutions was counted. […] The inhibition of adhesion was expressed as percent of cells remaining in suspension (non-adherent) relative to control. […]

[2] = tested on: neutrophils in diluted human blood; test: fMLP-induced neutrophil aggregation in diluted human blood; details: 1 mM [sic] HETE, fMLP 5×10^−7 M, N = 3 to 4
[3] = tested on: neutrophils in diluted human blood; test: as above; details: for inhibition of neutrophil aggregation: no concentration given; for Aggregation (percent of inhibition from HETE untreated cells): 1 µM compound, N = 4
Protocol: (§2) Stimulated neutrophil aggregation and oxygen free radical release were examined in whole human blood using a whole-blood aggregometer-chemiluminometer (Chronolog, Haverton, Pa.) as described in Bednar et al. J. Thromb. Thrombol. 1, 179-185 (1995). Briefly, blood samples containing heparin (1 U/ml) as the anticoagulant were diluted in HBSS in proportion 1 to 9. Diluted blood aliquots (1 ml) were stirred (400 rpm) in a prewarmed (37° C.) siliconized cuvette containing cytochalasin b (5 μg/ml) and luminol (in 8 μl DMSO, 500 μM final concentration) and the test HETE (concentration 0.01 to 10 μM) for 10 min. Neutrophils were stimulated with a submaximal dose of fMLP (5×10^−7M final concentration). The aggregation and chemiluminescence were simultaneously measured as changes of impedance and luminescence, respectively. The fMLP-induced chemiluminescence was calculated as the peak height of the reaction.
The methods were performed as described above in Example 3.

[4] = tested on: neutrophils in diluted human blood; test: fMLP-stimulated oxygen free radical release (luminol chemiluminescence) in diluted human blood; details: for OFR Release (percent of inhibition from HETE untreated cells): 1 mM [sic] HETE, fMLP 5×10^−7 M, chemiluminescence, N = 3 to 4
Protocol: as §2, with “Diluted blood aliquots (1 ml) were stirred (400 rpm) in a prewarmed (37° C.) siliconized cuvette containing cytochalasin b (5 μg/ml) and luminol (in 8 μl DMSO, 500 μM final concentration) and the test HETE (concentration 0.01 to 10 μM) for 10 min.” left out

[5] = tested on: platelets; test: ADP-induced platelet aggregation in diluted whole blood; details: 1 μM, ten minute incubation, ADP 5 μM, n=3, mean±sem
Source text: (§3) Platelet aggregation was examined in diluted whole blood using a Chronolog whole blood aggregometer (Havertown, Pa.) as previously described (Bednar, M. M.; Dooley, R. H.; Zamani, M.; Howard, D. B.; and Gross, C. E. Neutrophil and platelet activity and quantification following delayed t-PA therapy in a rabbit model of thromboembolic stroke. J. Thromb. Thrombol. 1:179-185 (1995). Briefly, whole blood was collected in 3.8% sodium citrate (9:1, v/v) and was subsequently diluted 50:50 with normal saline. Aggregation was assessed over a 6 minute interval following addition of a submaximal concentration of adenosine diphosphate (ADP, 5 μM: Sigma Corporation, St. Louis, Mo.). Aggregation was then repeated following a ten minute incubation with either 1 μM or 16(R)-HETE or 16(S)-HETE and expressed as the change in impedance as a percentage of the baseline value. Adenosine triphosphate (ATP) release was simultaneously measured from ADP-stimulated platelets in the Chronolog whole blood aggregometer using the Chrono-Lume luminescent agent (firefly luciferin-luciferase). Samples were compared to chemiluminescence obtained from ATP standards following the addition of luciferin-luciferase.

[6] = tested on: platelets; test: ATP release from ADP-stimulated platelets; details: 1 μM, ADP 5 μM, n=3, mean±sem
Source text: as §3

[7] = tested on: basal human neutrophils; test: Basal neutrophil adhesion to gelatin matrix
Protocol: as §1
Isolated neutrophils were resuspended in M199 containing 1% BSA with a final concentration of 3×10^6 cells per ml. Cells suspensions (1 ml) were incubated with or without a test compound, 16(S)-HETE, 16(R)-HETE, or 20-HETE (concentrations 0.01 to 10 μM) for 10 min and then placed into gelatin-coated wells and further incubated for 20 min at 37° C. The wells were washed three times with 0.5 ml of solution M199 to remove non-adherent cells. The adherent cells were then removed by addition of 0.4 ml of 0.25% trypsin-EDTA in 0.1 M PBS to the gelatin-coated wells and incubation for 10 min at 37° C. The incubates were transferred and the wells were washed with 0.1 ml of M199 solution. The amount of cells in combined solutions was counted. In some experiments, the adhesion of neutrophils was stimulated by addition of 1 U/ml of thrombin to neutrophil suspension immediately prior to the transfer of cells to the wells. Experiments were performed in duplicates for each concentration of HETE. The inhibition of adhesion was expressed as percent of cells remaining in suspension (non-adherent) relative to control. The range of adherent PMNs in control incubations was 6 to 23%. This was increased two-fold in the presence of thrombin.

[8] = tested on: human neutrophils; test: Agonist activity on human neutrophils; details: concentrations ≦20 μM
[9] = tested on: LTB4 synthesis in neutrophils; test: Neutrophil LTB4 production stimulated by fMLP; details: 1 μM, 10 min preincubation, fMLP 5×10^−7 M; fMLP alone 92.8±27.1, unstimulated 49.9±24.2; n=4
Protocol: 16(R)-HETE (0.01-1.0 μM) was preincubated for 10 minutes with the neutrophil suspension (3×10^6/ml) prior to the addition of formyl-methionyl-leucyl-phenylalanine (fMLP). Samples were then incubated for an additional 10 minutes with 5×10^−7M fMLP. All incubations took place at 37° C. Plasma samples for the measurement of LTB4 were collected by centrifugation of the whole blood samples at 1200 rpm for 15 minutes. Samples were stored at […] until analyzed. The plasma was then acidified to pH3 with 1M Hcl. The plasma was then placed on C2 reverse phase columns (Amprep for Amersham Corp., Arlington Heights, Ill.) to extract LTB4. LTB4 was then measured using the Biotrak LTB4 enzyme immunoassay system (Amersham Corp., Arlington Heights, Ill.). All standards and samples were performed in duplicate. Following incubation, all samples were read at 450 nm and the LTB4 concentration in each sample was determined following the generation of a standard curve. LTB4 concentration was expressed as picograms LTB4 per 1000 neutrophils.

[10] = concentrations of one micromolar, four observations per compound

## CCCC[C@H](O)/C=C\C/C=C\C/C=C\C/C=C\CCCC(=O)O [16(S)-HETE]
[1]; 1 μM, thrombin 1 U/ml, 3×10^6 cells/ml
  inhibition of thrombin-stimulated neutrophil adhesion: 40±14%
[2]
  Aggregation (percent of inhibition from HETE untreated cells): 7.0 ± 3.5%
[3]; concentrations of ≦10 μM
  inhibition of fMLP-induced neutrophil aggregation: not active
[4]
  OFR Release (percent of inhibition from HETE untreated cells): 5.6 ± 16.7%
[5]
  ADP-induced platelet aggregation, % of the control value: 101.3±14.0%
[6]
  ATP release from ADP-stimulated platelets, % of the control sample: 108.0±6.8%
[7]; 1 μM, 10 min preincubation, unstimulated neutrophils, gelatin matrix
  inhibition of basal neutrophil adhesion: 39±8%

## CCCCC[C@H](O)/C=C/C=C\C/C=C\C/C=C\CCCC(=O)O [15-HETE]
[3]
  inhibition of neutrophil aggregation: neither 20-HETE nor 15-HETE inhibited

## 5,6,14,15-Dehydro-8,9,11,12-tetrahydro-16(R)-HETE
[3]
  Aggregation (percent of inhibition from HETE untreated cells): 79.4 +/− 12.2%

## O=C(O)CCC/C=C\C/C=C\C/C=C\C/C=C\CCCCCO [20-HETE]
[1]; concentrations ≦10 μM
  inhibition of neutrophil adhesion, stimulated conditions: did not inhibit
[8]
  agonist activity on human neutrophils: no detectable agonist activity
[2]
  Aggregation (percent of inhibition from HETE untreated cells): 8.1 ± 2.6%
[3]; concentrations of ≦10 μM
  inhibition of fMLP-induced neutrophil aggregation: not active
[3]; concentrations up to 1 μM
  activity in assay of neutrophil aggregation: no activity
[3]
  inhibition of neutrophil aggregation: neither 20-HETE nor 15-HETE inhibited
[4]
  OFR Release (percent of inhibition from HETE untreated cells): 3.9 ± 13.4%
[4]; concentrations up to 1 μM
  activity in assay of luminol chemiluminescence: no activity
[7]; concentrations up to 1 μM
  activity in assay of neutrophil adhesion: no activity
[7]; concentrations ≦10 μM
  inhibition of neutrophil adhesion, basal conditions: did not inhibit

## CCCCC(O)/C=C\C/C=C\C/C=C\C/C=C\CCCC(=O)NS(C)(=O)=O [16(R)-HETE sulfonimide, N-methylsulfonyl-16-hydroxyeicosa-5,8,11,14-(Z)-tetraenamide]
[3]
  Aggregation (percent of inhibition from HETE untreated cells): 47.6 +/− 20.5* percent
[3]; [10]
  inhibition of fMLP-induced neutrophil aggregation: slightly lower activity than 16-HETE (R)

## C(1)-hydroxyl 16-HETE
[3]
  Aggregation (percent of inhibition from HETE untreated cells): 84.6 +/− 11.4%

## CCCC[C@@H](O)C=CCC=CCC=CCC=CCCCC(=O)O [16(R)-HETE, 16(R)-hydroxy-5,8,11,14-eicosatetraenoic acid]
[1]; Homo sapiens, Neutrophil, 1 μM, thrombin 1 U/ml, 3×10^6 cells/ml
  inhibition at 1 µM: 50 ± 4%
[9]
  LTB4 synthesis: 17.0±3.2 pg/1000 neutrophils
[2]
  Aggregation (percent of inhibition from HETE untreated cells): 42.0 ± 11.0%
[3]
  Aggregation (percent of inhibition from HETE untreated cells): 42.0 ± 11.0%
[3]; Homo sapiens, Neutrophil, fMLP 5×10^−7 M, read-out: IC50, inhibition of fMLP-induced neutrophil aggregation
  IC50: 1.2 µM
[3]; [10]
  inhibition of fMLP-induced neutrophil aggregation: inhibited
[4]
  OFR Release (percent of inhibition from HETE untreated cells): 8.9 ± 5.1%
[5]
  ADP-induced platelet aggregation, % of the control value: 85.9±21.4%
[6]
  ATP release from ADP-stimulated platelets, % of the control sample: 99.3±0.7%
[7]; Homo sapiens, Neutrophil, 1 μM, 10 min preincubation, unstimulated neutrophils, gelatin matrix
  inhibition at 1 µM: 73 ± 11%
[7]; preincubation with 10 μM
  inhibition of neutrophil adhesion to gelatin: completely inhibited

## CCCC[C@@H](O)/C=C\CCCCCCC/C=C\CCCC(=O)O [8,9,11,12-tetrahydro-16(R)-HETE]
[3]
  Aggregation (percent of inhibition from HETE untreated cells): 71.1 +/− 10.3* percent

## CCCC[C@@H](O)CCCCCCCCCCCCCCC(=O)O [5,6,8,9,11,12,14,15-octahydro-16(R)-HETE]
[3]
  Aggregation (percent of inhibition from HETE untreated cells): 122.8 +/− 15.4%
